In article PMC10440361 (Current Research in Pharmacology and Drug Discovery, 2023):
Read-outs that look alike come from different tables or passages of the source.

Key:
[1] = system: adult male cynomolgus monkeys; format: in vivo; details: for average increase in MAP between 30 min and 5 h: vehicle 3.5 mmHg; for maximum MAP values (increase from baseline) / maximum Δ MAP: telemetered cynomolgus monkeys; for maximum MAP values (increase from baseline): IV vehicle 22.2 ± 3.5 mmHg; for time for which increases from baseline in MAP above 20 mmHg were sustained: average; for average increase in MAP between 30 min and 5 h after administration: vehicle SC 0.8 mmHg; for maximum Δ MAP: vehicle SC 25.9 ± 1.6 mmHg
adult male Wistar rats = experiment: Skin blood flow; format: in vivo; details: anesthetized rats, IV infusion; discussion statement
[2] = system: adult male Sprague Dawley rats; experiment: Arterial blood pressure by telemetry after SC administration in rats; format: in vivo; details: conscious telemetered Sprague Dawley rats, n=6
human V1a receptors = details: read-out: EC50 for human V1a; ref Croston et al., 2023; cited from earlier work
human V2 receptors = details: ref Croston et al., 2023, cited from earlier work
rat V2 receptor = details: cell-based functional assays; ref Croston et al., 2023; cited from earlier work

N-[N-(N-glycylglycyl) glycyl]-8-L-lysinevasopressin [Terlipressin]
time past which MAP increases from baseline above 20 mmHg were not sustained ([1]; monkeys, IV bolus 0.03 mg/kg, on average): ≤ 30 min
average increase in MAP between 30 min and 5 h ([1]; monkeys, IV bolus 0.03 mg/kg): 6.0 mmHg
time past which MAP increases from baseline above 20 mmHg were not sustained ([1]; monkeys, IV bolus 0.09 mg/kg, on average): ≤ 30 min
average increase in MAP between 30 min and 5 h ([1]; monkeys, IV bolus 0.09 mg/kg): 5.8 mmHg
time past which MAP increases from baseline above 20 mmHg were not sustained ([1]; monkeys, IV bolus 0.17 mg/kg, on average): ≤ 75 min
average increase in MAP between 30 min and 5 h ([1]; monkeys, IV bolus 0.17 mg/kg): 14.6 mmHg
time past which MAP increases from baseline above 20 mmHg were not sustained ([1]; monkeys, IV bolus 0.34 mg/kg, on average): ≤ 90 min
average increase in MAP between 30 min and 5 h ([1]; monkeys, IV bolus 0.34 mg/kg): 14.7 mmHg
time after administration by which ΔMAP was negligible ([1]; monkeys, IV bolus, all treatment groups 0.03 to 0.34 mg/kg, on average): ≤ 150 min
maximum MAP values (increase from baseline) ([1]; IV bolus 0.03 mg/kg): 29.6 ± 3.6 mmHg
maximum MAP values (increase from baseline) ([1]; IV bolus 0.09 mg/kg): 29.9 ± 6.2 mmHg
maximum MAP values (increase from baseline) ([1]; IV bolus 0.17 mg/kg): 50.8 ± 5.6 mmHg
maximum MAP values (increase from baseline) ([1]; IV bolus 0.34 mg/kg): 41.2 ± 7.5 mmHg

[Phe2,Dab(Lys(Lys(Ac)-[Ala6,Glu9]))8]VT [OCE-205]
approximately maximal decrease in SBF from baseline (adult male Wistar rats): ~40%
maximum increase in mean arterial blood pressure vs mean pre-test value ([2]; SC 0.1 mg/kg, at 1 h): +22 mmHg
maximum increase in mean arterial blood pressure vs mean pre-test value ([2]; SC 0.6 mg/kg, at 2 h): +22 mmHg
maximum increase in mean arterial blood pressure vs mean pre-test value ([2]; SC 4 mg/kg, at 3 and 4 h): +38 mmHg
maximum increase in mean arterial blood pressure vs mean pre-test value ([2]; SC 20 mg/kg, at 4 h): +46 mmHg
time for which increases from baseline in MAP above 20 mmHg were sustained ([1]; monkeys, SC bolus 0.01 mg/kg): 150 min
average increase in MAP between 30 min and 5 h after administration ([1]; monkeys, SC bolus 0.01 mg/kg): 20.6 mmHg
time for which increases from baseline in MAP above 20 mmHg were sustained ([1]; monkeys, SC bolus 0.05 mg/kg): 75 min
average increase in MAP between 30 min and 5 h after administration ([1]; monkeys, SC bolus 0.05 mg/kg): 18.4 mmHg
time for which increases from baseline in MAP above 20 mmHg were sustained ([1]; monkeys, SC bolus 0.5 mg/kg): 300 min
Δ MAP maintained throughout the 8 h of measurement ([1]; monkeys, SC bolus 0.5 mg/kg, on average): above 14 mmHg
average increase in MAP between 30 min and 5 h after administration ([1]; monkeys, SC bolus 0.5 mg/kg): 24.8 mmHg
maximum Δ MAP ([1]; SC bolus 0.01 mg/kg): 36.1 ± 2.1 mmHg
maximum Δ MAP ([1]; SC bolus 0.05 mg/kg): 34.9 ± 1.1 mmHg
maximum Δ MAP ([1]; SC bolus 0.5 mg/kg): 41.6 ± 6.5 mmHg
EC50 (human V1a receptors): 0.7 nM
activity at human V2 receptors (human V2 receptors; at clinically relevant concentrations): little to no activity
activity at the human V2 receptor (human V2 receptors; cell-based functional assays): no activity
activity at the rat V2 receptor (rat V2 receptor): no activity
